Test [1] relates to pY705-STAT3 in Peripheral Blood Mononuclear Cells (PBMC). Nature of the test: MSD-pSTAT-PBMC Assay (pSTAT3, IL-6 stimulated). Particulars: Homo sapiens, compound 3 hrs, then 10 ng/mL IL-6 for 10 min. In kind it is cell-based, Human. From the text: Cryopreserved Peripheral Blood Mononuclear Cells (PBMC) are from AllCells. Recombinant Human IL-4 and IL-6 are from Peprotech. Mouse monoclonal anti-STAT3 antibody, rabbit monoclonal anti-pY705-STAT3 antibody, rabbit monoclonal Anti-pY641-STAT6 antibody, and lysis buffer are from Cell Signaling Technology (CST). Mouse monoclonal anti-STAT6 antibody is from BioLegend. Assay plates, blocker, and anti-rabbit secondary antibody are from Meso Scale Discovery (MSD).
Cryopreserved PBMCs were thawed out and allowed to recover overnight in IMDM+10% heat-inactivated FBS prior to plating 50,000 (STAT3) or 25,000 (STAT6) cells per well in 96-well U-bottom tissue culture plates. Cells were treated with compound for 3 hrs, then stimulated with 10 ng/mL IL-6 (STAT3) or 1 ng/mL IL-4 (STAT6) for 10 min. Cells were then spun down and washed with ice-cold PBS prior to lysing the cell pellet with 1× lysis buffer (CST) with 1×HALT protease and phosphatase inhibitor cocktail (Thermo). Lysates were transferred to and incubated overnight at 4° C. with shaking in QuickPlex 96-well high bind assay plates (MSD) pre-coated overnight with 30 μL per well of 0.6 μg/mL mouse monoclonal anti-STAT3 antibody (STAT3) or 2 μg/mL mouse monoclonal anti-STAT6 antibody (STAT6) in 1×PBS, and pre-blocked for 1 hour with 3% Blocker-A (MSD). Captured protein in the assay plates were then washed and probed with 25 μL per well of 0.25 μg/ml rabbit monoclonal anti-pY705-STAT3 antibody (STAT3) or […] rabbit monoclonal Anti-pY641-STAT6 antibody (STAT6) in 1% Blocker-A for 1 hour at room temperature with shaking, then washed and probed with 25 ul per well of 1 ug/ml Sulfo-TAG Labeled Goat Anti-Rabbit Antibody (MSD) in 1% Blocker-A for 1 hour at room temperature with shaking. Assay plates were then washed and 150 μL of 1× Read Buffer-T (MSD) was added to each well prior to reading on an SQ120 MSD Plate Reader. Assay signal from each sample was subtracted by the signal from unstimulated control wells and normalized to DMSO control wells. IC50 values were calculated using Graph Pad Prism Dose-Response Nonlinear Regression with variable slope. For both pSTAT3 and pSTAT6 A=≤100 nM; B=>100-1000 nM; C=>1000-3000 nM; and D=>3 μM.

In test [2] the test system is pY641-STAT6 in Peripheral Blood Mononuclear Cells (PBMC). Nature of the test: MSD-pSTAT-PBMC Assay (pSTAT6, IL-4 stimulated). The class given is cell-based, Human. As to conditions: Homo sapiens, compound 3 hrs, then 1 ng/mL IL-4 for 10 min. Put shortly: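 Human PBMCs were preincubated 3 h with compound, then stimulated 10 min with 10 ng/mL IL-6 (pY705-STAT3) or 1 ng/mL IL-4 (pY641-STAT6). Lysates were read by MSD sandwich immunoassay, capturing total STAT and detecting phospho-STAT. Signal was unstimulated-subtracted and DMSO-normalised, with variable-slope IC50 binned A–D.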

By IC50 is commonly meant the point on the concentration scale where inhibition reaches its midpoint.

As for `CC(=O)N1CC[C@H]2CC[C@@H](C(=O)N3C[C@H](c4ccccc4)[C@@H](C#N)C3)N2C(=O)[C@@H](NC(=O)c2ccc3ccc(C(F)(F)P(=O)(OCOC(=O)C(C)(C)C)OCOC(=O)C(C)(C)C)cc3c2)C1` (mixture of isomers) [Compound 323, ((((7-(((5S,8S, 10aR)-3-acetyl-8-((rel- trans)-3-cyano-4-phenyl-pyrrolidine-1-carbonyl)-6-oxodecahydro-pyrrolo[1,2-a][1,5]diazocin-5-yl)carbamoyl)naphthalen-2-yl)difluoro-methyl)phos-phoryl)bis(oxy)) bis(methylene) bis(2,2-dimethylpro-panoate)], the figures for the IC50 in test [1] and in test [2] were 1000 to 3000 nM and not above 100 nM, respectively.

Take `CCCC(=O)SCCOP(=O)(OCCSC(=O)CCC)C(F)(F)c1ccc2ccc(C(=O)N[C@H]3CN(C(=O)c4n[nH]c5ccc(C)cc45)CC[C@H]4CC[C@@H](C(=O)N5CC(c6ccccc6)[C@@H](C#N)C5)N4C3=O)cc2c1` (relative stereo) [Compound 336, S,S′-(((((7-(((5S,8S,10aR)-8-((rel-trans)-3-cyano-4-phenylpyrrolidine-1-carbonyl)-3-(5-methyl-1H-indazole-3-carbonyl)-6-oxodecahydropyrrolo[1,2-a][1,5]diazocin-5-yl)carbamoyl)naphthalen-2-yl)difluoromethyl)phosphoryl)bis(oxy))bis(ethane-2,1-diyl)) dibutanethioate]: the half-inhibitory concentration (IC50) in test [1] is 1000 to 3000 nM; in test [2] it was not above 100 nM.

Take `CC(C)(C)C(=O)SCCOP(=O)(OCCSC(=O)C(C)(C)C)C(F)(F)c1ccc2ccc(C(=O)N[C@H]3CN(CC(F)F)CC[C@H]4CC[C@@H](C(=O)N5CC[C@H](c6ccccc6)[C@@H](C#N)C5)N4C3=O)cc2c1` (relative stereo) [Compound 340, S,S′-(((((7-(((5S,8S,10aR)-8-((rel-trans)-3-cyano-4-phenylpiperidine-1-carbonyl)-3-(2,2-difluoroethyl)-6-oxodecahydropyrrolo[1,2-a][1,5]diazocin-5-yl)carbamoyl)naphthalen-2-yl)difluoromethyl)phosphoryl)bis(oxy))bis (ethane-2,1-diyl))bis(2,2-dimethylpropanethioate)]: the concentration for half-maximal inhibition (IC50) in test [1] and in test [2] was more than 3000 nM each time.

On to `CC(C)CC(=O)SCCOP(=O)(OCCSC(=O)CC(C)C)C(F)(F)c1ccc2ccc(C(=O)N[C@H]3CN(CC(F)F)CC[C@H]4CC[C@@H](C(=O)N5C[C@H](c6cc(F)cc(F)c6)[C@@H](C#N)C5)N4C3=O)cc2c1` (relative stereo) [Compound 341, S,S′-(((((7-(((5S,8S,10aR)-8-((rel-trans)-3-cyano-4-(3,5-difluorophenyl)pyrrolidine-1-carbonyl)-3-(2,2-difluoroethyl)-6-oxodecahydropyrrolo[1,2-a][1,5]diazocin-5-yl)carbamoyl)naphthalen-2-yl)difluoromethyl)phosphoryl)bis(oxy))bis(ethane-2,1-diyl))bis(3-methylbutanethioate)], for which the IC50 in test [1] was more than 3000 nM; in test [2], 1000 to 3000 nM.

For `COC(=O)N1CC[C@H]2CC[C@@H](C(=O)N3C[C@H](c4ccccc4)[C@@H](C#N)C3)N2C(=O)[C@@H](NC(=O)c2cc3cc(C(F)(F)P(=O)(OCOC(=O)C(C)(C)C)OCOC(=O)C(C)(C)C)ccc3s2)C1` (relative stereo) [Compound 349, ((((2-(((5S,8S,10aR)-8-((rel-trans)-3-cyano-4-phenylpyrrolidine-1-carbonyl)-3-(methoxycarbonyl)-6-oxodecahydropyrrolo[1,2-a][1,5]diazocin-5-yl)carbamoyl)benzo[b]thiophen-5-yl)difluoromethyl)phosphoryl)bis(oxy)) bis(methylene) bis(2,2-dimethylpropanoate)], the IC50 in test [1] is 100 to 1000 nM; in test [2] it was not above 100 nM.

For `CCN1CC[C@H]2CC[C@@H](C(=O)N3C[C@@H](C#N)[C@H](c4ccccc4)C3)N2C(=O)[C@@H](NC(=O)c2cc3cc(C(F)(F)P(=O)(OCOC(=O)C(C)(C)C)OCOC(=O)C(C)(C)C)ccc3s2)C1` (single isomer, unassigned) [Compound 281, ((((2-(((5S,8S, 10aR)-8-((3S,4R or 3R,4S)-3-cyano-4-phenyl-pyrrolidine-1-carbonyl)-3-ethyl-6-oxodecahydro-pyrrolo[1,2-a][1,5]diazocin-5-yl)carbamoyl)benzo[b]thiophen-5-yl)difluoro-methyl)phos-phoryl)bis(oxy)) bis(methylene) bis(2,2-dimethyl-propanoate)], the IC50 in test [1] and in test [2] was not above 100 nM each time.

Regarding `CC(=O)N1CC[C@H]2CC[C@@H](C(=O)N3C[C@@H](C#N)[C@H](c4ccccc4)C3)N2C(=O)[C@@H](NC(=O)c2cc3cc(C(F)(F)P(=O)(OCOC(=O)OC(C)C)OCOC(=O)OC(C)C)ccc3s2)C1` (single isomer, unassigned) [Compound 282, ((((2-(((5S,8S, 10aR)-3-acetyl-8-((3S,4R or 3R,4S)-3-cyano-4-phenyl-pyrrolidine-1-carbonyl)-6-oxodecahydro-pyrrolo[1,2-a][1,5]diazocin-5-yl)carbamoyl)benzo[b]thiophen-5-yl)difluoro-methyl)phos-phoryl)bis(oxy)) bis(methylene) diisopropyl bis(carbonate)], the concentration for half-maximal inhibition (IC50) in test [1] was 1000 to 3000 nM; in test [2], not above 100 nM.

As for `CC(=O)N1CC[C@H]2CC[C@@H](C(=O)N3C[C@H](c4ccccc4)[C@@H](C#N)C3)N2C(=O)[C@@H](NC(=O)c2cc3cc(C(F)(F)P(=O)(OCOC(=O)OC(C)C)OCOC(=O)OC(C)C)ccc3s2)C1` (single isomer, unassigned) [Compound 285, ((((2-(((5S,8S, 10aR)-3-acetyl-8-((3R,4S or 3S,4R)-3-cyano-4-phenyl-pyrrolidine-1-carbonyl)-6-oxodecahydro-pyrrolo[1,2-a][1,5]diazocin-5-yl)carbamoyl)benzo[b]thiophen-5-yl)difluoro-methyl)phos-phoryl)bis(oxy)) bis(methylene) diisopropyl bis(carbonate)], the IC50 in test [1] was 100 to 1000 nM; in test [2] it was not above 100 nM.

Turning to `CCCC(=O)SCCOP(=O)(OCOC(=O)OC(C)C)C(F)(F)c1ccc2ccc(C(=O)N[C@H]3CN(C(C)=O)CC[C@H]4CC[C@@H](C(=O)N5C[C@H](c6cc[nH]c(=O)c6)[C@@H](C#N)C5)N4C3=O)cc2c1` (single isomer, unassigned) [Compound 303, S-(2-((((7-(((5S,8S, 10aR)-3-acetyl-8-((3R,4S or 3S,4R)-3-cyano-4-(2-oxo-1,2-dihydro-pyridin-4-yl)pyrrolidine-1-carbonyl)-6-oxodecahydro-pyrrolo[1,2-a][1,5]diazocin-5-yl)carbamoyl)naphthalen-2-yl)difluoro-methyl)(((iso-propoxy-carbonyl)oxy)methoxy)phosphoryl)oxy)ethyl) butanethioate], the IC50 in test [1] was in the range of 1000 to 3000 nM; in test [2], 100 to 1000 nM.

On to `CC(C)OC(=O)[C@H](C)NP(=O)(Cc1ccc2sc(C(=O)N[C@H]3CN(Cc4ccn5ccnc5c4)CC[C@H]4CC[C@@H](C(=O)N5CC(c6cccnc6)C5)N4C3=O)cc2c1)NCc1ccccc1` (some centres unmarked) [Compound 333], for which the IC50 in test [1] is more than 3000 nM.

Take `CC(C)OC(=O)OCOP(=O)(Cc1ccc2sc(C(=O)N[C@H]3CN(Cc4ccn5ccnc5c4)CC[C@H]4CC[C@@H](C(=O)N5CC(c6cccnc6)C5)N4C3=O)cc2c1)OCOC(=O)OC(C)C` [Compound 338, ((((2-(((5S,8S,10aR)-3-(imidazo[1,2-a]pyridin-7-ylmethyl)-6-oxo-8-(3-(pyridin-3-yl)azetidine-1-carbonyl)decahydropyrrolo[1,2-a][1,5]diazocin-5-yl)carbamoyl)benzo[b]thiophen-5-yl)methyl)phosphoryl)bis (oxy))bis(methylene)diisopropylbis(carbonate)]: the half-maximal inhibitory concentration (IC50) in test [1] was 100 to 1000 nM.

For the origin of these results see patent US20250179103A1, “6-OXODECAHYDROPYRROLO[1,2-A][1,5]DIAZOCINE AND 6-OXODECAHYDRO-4H-PYRROLO[2,1-D][1,5]THIAZOCINE DERIVATIVES AS STAT3 AND STAT6 MODULATORS FOR THE TREATMENT OF CANCER AND INFLAMMATORY CONDITIONS” (Recludix Pharma, Inc., priority 2022, published 2025).
